Results taken from patent US8309551B2, “Pyrazolopyridine, indazole, imidazopyridine, imidazopyrimidine, pyrazolopyrazine and pyrazolopyridine derivatives as stimulators of guanylate cyclase for cardiovascular disorders” (Bayer Intellectual Property GmbH, priority 2006, dated 2012).
pIC50: −log10 of the molar value. Where two headings read alike, the source gives them in different places.

Test system: aorta rings
Experiment: Vasorelaxant effect in vitro (phenylephrine-contracted rabbit aorta rings)
Settings: Oryctolagus cuniculus, read-out: IC50 (concentration necessary to reduce the level of contraction by 50%)
Method: B-1. Vasorelaxant Effect in Vitro
Rabbits are stunned by a blow to the back of the neck and are exsanguinated. The aorta is removed, freed of adherent tissue, divided into rings 1.5 mm wide and placed singly in 5 ml organ baths with carbogen-gassed Krebs-Henseleit solution of the following composition (in each case mM): NaCl: 119; KCl: 4.8; CaCl2×2 H2O: 1; MgSO4×7 H2O: 1.4; KH2PO4: 1.2; NaHCO3: 25; glucose: 10, under an initial tension at 37° C. The force of contraction is detected with Statham UC2 cells, amplified and digitized via A/D converters (DAS-1802 HC, Keithley Instruments Munich), and recorded in parallel on chart recorders. A contraction is induced by adding phenylephrine to the bath cumulatively in increasing concentration. After several control cycles, the substance to be investigated is added in each further run in increasing dosage each time, and the level of contraction is compared with the level of contraction achieved in the last preceding run. The concentration necessary to reduce the level of contraction by 50% (IC50) is calculated therefrom. The standard application volume is 5 μl, and the DMSO content in the bath solution corresponds to 0.1%.

[1] = rabbit aorta rings, contraction induced by phenylephrine, 37° C., 0.1% DMSO

Row | pIC50 [1] | pIC50 | Compound
1 | 6.52 |  | Nc1nc(N)nc(-n2nc(Cc3ccccc3F)c3ccccc32)n1 [Example 2, 6-[3-(2-Fluorobenzyl)-1H-indazol-1-yl]-1,3,5-triazine-2,4-diamine]
2 | 5.54 |  | Nc1nc(N)nc(-c2nc(Cc3ccccc3F)n3ccccc23)n1 [Example 3, 6-[3-(2-Fluorobenzyl)imidazo[1,5-a]pyridin-1-yl]-1,3,5-triazine-2,4-diamine]

The next lines start with the molecule.

Row | Compound | pIC50 [1] | pIC50
3 | Nc1nc(N)nc(-n2nc(Cc3ccccc3F)c3ncccc32)n1 [Example 1, 6-[3-(2-Fluorobenzyl)-1H-pyrazolo[4,3-b]pyridin-1-yl]-1,3,5-triazine-2,4-diamine] | 6.62 | 
4 | Nc1nc(N)nc(-c2nc(Cc3ccccc3F)c3ncccn23)n1 [Example 4, 6-[8-(2-Fluorobenzyl)imidazo[1,5-a]pyrimidin-6-yl]-1,3,5-triazine-2,4-diamine] |  | 6.67
5 | Nc1cc(N)nc(-c2nc(Cc3ccccc3F)c3ncccn23)n1 [Example 7, 2-[8-(2-Fluorobenzyl)imidazo[1,5-a]pyrimidin-6-yl]pyrimidine-4,6-diamine] |  | 5.98
